Measurements reported in patent US11806342B2, “Diiodohydroxyquinoline for the treatment of clostridium difficile infection” (Purdue Research Foundation, priority 2019, dated 2023).
In brackets after ≈: the same amount, converted by molar mass.

Columns and labels:
Type in all cases: cell-based, Clostridium difficile
C. difficile HM-745 = test: MIC and MBC, broth microdilution; details: Clostridioides difficile, HM745
Procedure, shortened: (§1)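 Growth inhibition was measured by broth microdilution. For MBC, wells with no visible growth were plated onto BHIS agar, and the MBC was taken as the lowest concentration giving a 99.9% reduction in bacterial growth.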

C. difficile I11 = test: MIC and MBC, broth microdilution; details: Clostridioides difficile, I11
Procedure, shortened: as §1

C. difficile I13 = test: MIC and MBC, broth microdilution; details: Clostridioides difficile, I13
Procedure, shortened: as §1

C. difficile I9 [1] = test: MIC and MBC, broth microdilution; details: Clostridioides difficile, I9
Procedure, shortened: as §1

C. difficile NR-49278 = test: MIC and MBC, broth microdilution; details: Clostridioides difficile, NR49278
Procedure, shortened: as §1

C. difficile P15 = test: MIC and MBC, broth microdilution; details: Clostridioides difficile, P15
Procedure, shortened: as §1

C. difficile P19 = test: MIC and MBC, broth microdilution; details: Clostridioides difficile, P19
Procedure, shortened: as §1

C. difficile P30 = test: MIC and MBC, broth microdilution; details: Clostridioides difficile, P30
Procedure, shortened: as §1

C. difficile P3 = test: MIC and MBC, broth microdilution; details: Clostridioides difficile, P3
Procedure, shortened: as §1

C. difficile P5 = test: MIC and MBC, broth microdilution; details: Clostridioides difficile, P5
Procedure, shortened: as §1

[2] = test system: 38 tested C. difficile strains; test: MIC and MBC over the panel of clinical isolates (MIC50, MIC90, range); details: Clostridioides difficile
Description: MIC50 and MIC90 are the minimum concentration of each agent that inhibited growth of 50% and 90% of the tested isolates, respectively. The minimum bactericidal concentration (MBC) of these drugs was tested by plating 5 μL from wells with no growth onto BHIS agar plates. The MBC was categorized as the lowest concentration that reduced bacterial growth by 99.9% MIC50 and MIC90 are the minimum concentration of each agent that inhibited the growth of 50% and 90% of the tested isolates, respectively. The minimum bactericidal concentration (MBC) of these drugs was tested by plating 5 μL from wells with no growth onto BHIS agar plates. The MBC was categorized as the lowest concentration that reduced bacterial growth by 99.9% [29-31].

C. difficile ATCC 43255 [3] = test: Checkerboard assay, DIHQ with metronidazole or vancomycin
Description: (§2) The fractional inhibitory concentration index (ΣFIC) was calculated for each interaction. Interactions where the ΣFIC index was ≤0.5 were categorized as synergistic (SYN).

[4] = test system: C. difficile ATCC BAA-1870; test: as above
Description: as §2

C. difficile I9 [5] = test: as above
Description: as §2

C. difficile ATCC 43255 [6] = test: Spore inhibition assay; details: C. difficile ATCC 43255, ½×MIC or 1×MIC, five days
Description: (§3) The spore inhibition assay was performed as described in previous reports to investigate the effect of diiodohydroxyquinoline on C. difficile spore formation. Briefly, […], the bacterial suspension was split into microcentrifuge tubes and drugs were added (in triplicates) at concentrations equal to ½×MIC or 1×MIC. Tubes were then, incubated anaerobically for five days at 37° C. Thereafter, an aliquot from each tube was diluted and plated on BHIS agar plates supplemented with 0.1% taurocholic acid, to count the total bacterial counts (vegetative bacteria+spores). The remaining solution was centrifuged, and the pellet was suspended in PBS, stored overnight at 4° C., and subsequently shock-heated at 70° C. for 30 minutes to kill the vegetative cells. The resulting solution was serially diluted and plated to determine the heat-resistant spore counts. Spore inhibition assay was performed as described in previous reports to investigate the effect of DIHQ on C. difficile spore formation. Briefly, log-phase cultures of C. difficile strains (ATCC BAA-1870, ATCC 43255, and NR-49277) were diluted in BHIS to an initial density of ˜10^6 CFU/mL. Afterwards, the bacterial suspension was split in small tubes and the drugs were added (in triplicates) at concentrations equal to ½×MIC or 1×MIC. Tubes were then incubated anaerobically for 5 days at 37° C. After that, an aliquot from each tube was diluted and plated on BHIS agar plates supplemented with 0.1% taurocholic acid, to count the total bacterial count (vegetative bacteria+spores). The remaining solution was centrifuged, and the pellet was suspended in PBS and stored overnight at 4° C. then shock heated at 70° C. for 30 minutes to kill the vegetative cells. The resulting solution was serially diluted and plated to determine the heat-resistant spore counts.

[7] = test system: C. difficile ATCC BAA-1870; test: Spore inhibition assay; details: C. difficile ATCC BAA-1870, ½×MIC or 1×MIC, five days
Description: as §3

C. difficile NR-49277 = test: Spore inhibition assay; details: C. difficile NR-49277, ½×MIC or 1×MIC, five days
Description: as §3

Question: Which MBC (C. difficile HM-745) does the source give for `CN[C@H](CC(C)C)C(=O)N[C@H]1C(=O)N[C@@H](CC(N)=O)C(=O)N[C@H]2C(=O)N[C@H]3C(=O)N[C@H](C(=O)N[C@H](C(=O)O)c4cc(O)cc(O)c4-c4cc3ccc4O)[C@H](O)c3ccc(c(Cl)c3)Oc3cc2cc(c3O[C@@H]2O[C@H](CO)[C@@H](O)[C@H](O)[C@H]2O[C@H]2C[C@](C)(N)[C@H](O)[C@H](C)O2)Oc2ccc(cc2Cl)[C@H]1O` [Vancomycin, vancomycin] here?
Answer: 1 µg/mL (≈ 0.69 µM)

Question: And the MIC (C. difficile HM-745)?
Answer: 1 µg/mL (≈ 0.69 µM)

Question: What about the MBC (C. difficile I11) of the same molecule?
Answer: 1 µg/mL (≈ 0.69 µM)

Question: What about the MIC (C. difficile I11) of the same molecule?
Answer: 1 µg/mL (≈ 0.69 µM)

Question: And the MBC (C. difficile I13)?
Answer: 1 µg/mL (≈ 0.69 µM)

Question: And the MIC (C. difficile I13)?
Answer: 1 µg/mL (≈ 0.69 µM)

Question: And the MBC (C. difficile I9 [1])?
Answer: 0.5 µg/mL (≈ 0.345 µM)

Question: And the MIC (C. difficile I9 [1])?
Answer: 0.5 µg/mL (≈ 0.345 µM)

Question: What about the MBC (C. difficile NR-49278) of the same molecule?
Answer: 0.5 µg/mL (≈ 0.345 µM)

Question: What about the MIC (C. difficile NR-49278) of the same molecule?
Answer: 0.25 µg/mL (≈ 0.173 µM)

Question: What about the MBC (C. difficile P15) of the same molecule?
Answer: 1 µg/mL (≈ 0.69 µM)

Question: What about the MIC (C. difficile P15) of the same molecule?
Answer: 1 µg/mL (≈ 0.69 µM)

Question: What about the MBC (C. difficile P19) of the same molecule?
Answer: 1 µg/mL (≈ 0.69 µM)

Question: What about the MIC (C. difficile P19) of the same molecule?
Answer: 1 µg/mL (≈ 0.69 µM)

Question: What about the MBC (C. difficile P30) of the same molecule?
Answer: 0.5 µg/mL (≈ 0.345 µM)

Question: What about the MIC (C. difficile P30) of the same molecule?
Answer: 0.5 µg/mL (≈ 0.345 µM)

Question: What about the MBC (C. difficile P3) of the same molecule?
Answer: 1 µg/mL (≈ 0.69 µM)

Question: What about the MIC (C. difficile P3) of the same molecule?
Answer: 1 µg/mL (≈ 0.69 µM)

Question: What about the MBC (C. difficile P5) of the same molecule?
Answer: 0.5 µg/mL (≈ 0.345 µM)

Question: What about the MIC (C. difficile P5) of the same molecule?
Answer: 0.5 µg/mL (≈ 0.345 µM)

Question: And the MIC50 [2]?
Answer: 0.5 µg/mL (≈ 0.345 µM)

Question: What about the MIC90 [2] of the same molecule?
Answer: 1 µg/mL (≈ 0.69 µM)

Question: What about the “MIC of vancomycin combined with DIHQ” value (C. difficile ATCC 43255 [3]; C. difficile ATCC 43255) of the same molecule?
Answer: 0.125 µg/mL

Question: And the MIC (C. difficile ATCC 43255 [3]; Clostridioides difficile, ATCC43255, read-out: MIC alone)?
Answer: 1 µg/mL

Question: And the “MIC of vancomycin combined with DIHQ” value ([4]; C. difficile ATCC BAA-1870)?
Answer: 0.125 µg/mL

Question: What about the MIC ([4]; Clostridioides difficile, ATCCBAA1870, read-out: MIC alone) of the same molecule?
Answer: 1 µg/mL

Question: And the “MIC of vancomycin combined with DIHQ” value (C. difficile I9 [5]; C. difficile I9)?
Answer: 0.125 µg/mL

Question: What about the MIC (C. difficile I9 [5]; Clostridioides difficile, I9, read-out: MIC alone) of the same molecule?
Answer: 1 µg/mL

Question: What about the “reduction in spore count (in words)” value (C. difficile ATCC 43255 [6]) of the same molecule?
Answer: almost no reduction

Question: And the “reduction in spore count (in words)” value [7]?
Answer: almost no reduction

Question: What about the “reduction in spore count (in words)” value (C. difficile NR-49277) of the same molecule?
Answer: almost no reduction
